# ChEMBL document CHEMBL5244281, “Tackling multidrug-resistant Staphylococcus aureus by natural products and their analogues acting as NorA efflux pump inhibitors” (Bioorg Med Chem, 2023)
# Legend:
# [1] = test system: Staphylococcus aureus; test: Antibacterial activity against Staphylococcus aureus ATCC 25923 assessed as bacterial growth inhibition incubated for 24 hrs by resazurin based microdilution assay; assay type: functional
# [2] = test system: Staphylococcus aureus; test: Antibacterial activity against Staphylococcus aureus 1199 assessed as bacterial growth inhibition incubated for 24 hrs by resazurin based microdilution assay; assay type: functional
# [3] = target: T1, Quinolone resistance protein NorA (Staphylococcus aureus) (UniProt P0A0J7); test: Potentiation of norfloxacin-induced inhibition of NorA efflux in Staphylococcus aureus 1199B overexpressing NorA assessed as reduction in norfloxacin MIC at 1/8 times of MIC incubated for 24 hrs by CLSI based assay (Rvb= 322.54 ug/ml)
# T1 sequence (whole entry): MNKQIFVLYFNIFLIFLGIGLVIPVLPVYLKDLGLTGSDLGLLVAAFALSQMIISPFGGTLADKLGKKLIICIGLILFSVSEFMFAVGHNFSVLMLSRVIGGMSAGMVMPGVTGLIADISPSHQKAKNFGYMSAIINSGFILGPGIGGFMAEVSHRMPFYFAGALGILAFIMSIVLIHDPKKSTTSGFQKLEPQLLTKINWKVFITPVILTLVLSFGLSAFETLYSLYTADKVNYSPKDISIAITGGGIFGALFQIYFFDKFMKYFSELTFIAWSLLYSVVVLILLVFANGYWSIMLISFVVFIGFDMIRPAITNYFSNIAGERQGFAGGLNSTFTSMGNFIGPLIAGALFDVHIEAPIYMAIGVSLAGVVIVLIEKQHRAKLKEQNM
# [4] = target: Multidrug export protein MepA (Staphylococcus aureus (strain NCTC 8325)) (UniProt Q2G140); test: Potentiation of EtBr-induced inhibition of MepA efflux in Staphylococcus aureus K2068 overexpressing MepA assessed as reduction in EtBr MIC at 1/8 times of MIC incubated for 24 hrs by CLSI based assay (Rvb= 322.54 ug/ml)
# [5] = test system: Candida albicans; test: Antifungal activity against Candida albicans NEWP031 assessed as bacterial growth inhibition incubated for 24 hrs by resazurin based microdilution assay; assay type: functional
# [6] = target: T1, Quinolone resistance protein NorA (Staphylococcus aureus); test: Potentiation of EtBr-induced inhibition of NorA efflux in Staphylococcus aureus 1199B overexpressing NorA assessed as reduction in EtBr MIC at 256 ug/ml incubated for 24 hrs by resazurin based assay (Rvb= 32 ug/ml); settings: dose 256.0 µg/ml
# [7] = test system: Staphylococcus aureus; test: Antibacterial activity against Staphylococcus aureus SA10 assessed as bacterial growth inhibition incubated for 24 hrs by resazurin based microdilution assay; assay type: functional
# [8] = test system: Staphylococcus aureus; test: Antibacterial activity against norfloxacin resistant Staphylococcus aureus 1199B overexpressing NorA assessed as bacterial growth inhibition incubated for 24 hrs by resazurin based microdilution assay; assay type: functional
# [9] = test system: Escherichia coli; test: Antibacterial activity against Escherichia coli ATCC […] assessed as bacterial growth inhibition incubated for 24 hrs by resazurin based microdilution assay; assay type: functional
# [10] = test system: Staphylococcus aureus; test: Antibacterial activity against norfloxacin resistant Staphylococcus aureus RN4220 overexpressing […] efflux pump gene assessed as bacterial growth inhibition incubated for 24 hrs by CLSI protocol based microdilution method; assay type: functional
# [11] = test system: Staphylococcus aureus; test: Antibacterial activity against norfloxacin resistant Staphylococcus aureus IS-58 overexpressing TetK efflux pump gene assessed as bacterial growth inhibition incubated for 24 hrs by CLSI protocol based microdilution method; assay type: functional
# [12] = test system: Staphylococcus aureus; test: Antibacterial activity against norfloxacin resistant Staphylococcus aureus 1199B overexpressing NorA efflux pump gene assessed as bacterial growth inhibition incubated for 24 hrs by CLSI protocol based microdilution method; assay type: functional
# [13] = test system: Staphylococcus aureus; test: Synergistic antibacterial activity against Staphylococcus aureus 1199B overexpressing NorA gene assessed as fractional inhibitory concentration index at 2 ug/ml in presence of norfloxacin; assay type: functional; settings: dose 2 µg/ml
# [14] = test system: Staphylococcus aureus; test: Antibacterial activity against methicillin-resistant Staphylococcus aureus 1199B overexpressing NorA gene assessed as bacterial growth inhibition; assay type: functional
# [15] = test system: Staphylococcus aureus; test: Antibacterial activity against norfloxacin resistant Staphylococcus aureus 1199 assessed as bacterial growth inhibition; assay type: functional
# [16] = test system: Staphylococcus aureus; test: Antibacterial activity against norfloxacin resistant Staphylococcus aureus 1199B overexpressing NorA assessed as bacterial growth inhibition; assay type: functional
# [17] = test system: Candida albicans; test: Antimicrobial activity against Candida albicans ATCC 10231 assessed as […] growth inhibition incubated for 24 hrs by microdilution method; assay type: functional
# [18] = test system: Escherichia coli; test: Antibacterial activity against Escherichia coli ATCC 25922 assessed as bacterial growth inhibition incubated for 24 hrs by microdilution method; assay type: functional
# [19] = test system: Staphylococcus aureus; test: Antibacterial activity against wild type Staphylococcus aureus ATCC 25923 assessed as bacterial growth inhibition incubated for 24 hrs by microdilution method; assay type: functional
# [20] = test system: Staphylococcus aureus; test: Antibacterial activity against Staphylococcus aureus 1199B overexpressing NorA efflux protein assessed as bacterial growth inhibition incubated for 24 hrs by microdilution method; assay type: functional
# [21] = target: T1, Quinolone resistance protein NorA (Staphylococcus aureus); test: Potentiation of EtBr-induced inhibition of NorA efflux pump in Staphylococcus aureus 1199B overexpressing NorA efflux pump assessed as reduction in EtBr MIC at 1/8 times of MIC by resazurin based assay (Rvb= 512 ug/ml)
# [22] = test system: Escherichia coli; test: Potentiation of gentamicin-induced antibacterial activity against Escherichia coli 06 assessed as gentamicin MIC at 1/8 times of MIC (Rvb= 322 ug/ml); assay type: functional
# [23] = test system: Klebsiella pneumoniae; test: Antimicrobial activity against Klebsiella pneumoniae 1213-2 assessed as bacterial growth inhibition incubated for 18 hrs by broth microdilution assay; assay type: functional
# [24] = test system: Staphylococcus aureus; test: Antimicrobial activity against Staphylococcus aureus BAA-44 assessed as bacterial growth inhibition incubated for 18 hrs by broth microdilution assay; assay type: functional
# [25] = test system: Enterococcus faecium; test: Antimicrobial activity against Enterococcus faecium ATCC 700221 assessed as bacterial growth inhibition incubated for 18 hrs by broth microdilution assay; assay type: functional
# [26] = test system: Escherichia coli; test: Antimicrobial activity against Escherichia coli ATCC 25922 assessed as bacterial growth inhibition incubated for 18 hrs by broth microdilution assay; assay type: functional
# [27] = test system: Staphylococcus aureus; test: Antimicrobial activity against Staphylococcus aureus ATCC 29213 assessed as bacterial growth inhibition incubated for 18 hrs by broth microdilution assay; assay type: functional
# [28] = test system: Staphylococcus aureus; test: Antimicrobial activity against Staphylococcus aureus ATCC 43300 assessed as bacterial growth inhibition incubated for 18 hrs by broth microdilution assay; assay type: functional
# [29] = test system: Enterococcus faecalis; test: Antimicrobial activity against Enterococcus faecalis ATCC 29212 assessed as bacterial growth inhibition incubated for 18 hrs by broth microdilution assay; assay type: functional
# [30] = target: T1, Quinolone resistance protein NorA (Staphylococcus aureus); test: Inhibition of NorA efflux pump in Staphylococcus aureus 1199B overexpressing NorA efflux pump assessed as decrease in norfloxacin MIC at 1/4 times MIC and measured for 45 mins in presence of norfloxacin by fluorimetric analysis (Rvb=32 ug/ml)
# [31] = test system: Staphylococcus aureus; test: Antibacterial activity against Staphylococcus aureus K1758 with NorA knockout assessed as bacterial growth inhibition incubated for 18 hrs by broth dilution method; assay type: functional
# [32] = test system: Staphylococcus aureus; test: Antibacterial activity against Staphylococcus aureus 1199B overexpressing NorA efflux pump assessed as bacterial growth inhibition incubated for 18 hrs by broth dilution method; assay type: functional
# [33] = target: T1, Quinolone resistance protein NorA (Staphylococcus aureus); test: Inhibition of NorA efflux pump in Staphylococcus aureus 1199B overexpressing NorA efflux pump assessed as decrease in ciprofloxacin MIC at 1/4 times MIC and measured for 45 mins in presence of ciprofloxacin by fluorimetric analysis (Rvb=8 ug/ml)
compound,measurement,setting,value
C=CCc1ccc(OC)cc1 [ESTRAGOLE],MIC,[1],≥ 1020 µg/mL
same,MIC,[2],≥ 1020 µg/mL
same,MIC,[3],256 µg/mL
same,MIC,[4],256 µg/mL
same,MIC,[5],2050 µg/mL
same,MIC,[6],16 µg/mL
same,MIC,[7],≥ 1020 µg/mL
same,MIC,[8],≥ 1020 µg/mL
same,MIC,[9],2050 µg/mL
O=C(O)c1cc(O)c(O)c(O)c1 [GALLIC ACID],MIC,[10],1020 µg/mL
same,MIC,[11],1020 µg/mL
same,MIC,[12],1020 µg/mL
COc1cc2oc(-c3ccc(O)cc3)c(OC)c(=O)c2c(O)c1OC [PENDULETIN],fractional inhibitory concentration index (FICI),[13],0.079
same,MIC,[14],256 µg/mL
CC1=CCC(C(C)C)CC1 (configuration not stated),MIC,[15],> 1020 µg/mL
same,MIC,[16],> 1020 µg/mL
COc1cc(O)cc2c1[C@@H](/C=C/c1ccc(O)cc1)[C@@H]1[C@@H](c3ccccc3)Oc3cc(O)ccc3[C@@H]1O2,MIC,[17],> 1020 µg/mL
same,MIC,[18],> 1020 µg/mL
same,MIC,[19],> 1020 µg/mL
same,MIC,[20],> 1020 µg/mL
C[C@H]1[C@H](C)CC[C@]2(C)CC[C@]3(C)C(=CC[C@@H]4[C@@]5(C)CC[C@H](O)C(C)(C)[C@@H]5CC[C@]43C)[C@H]12,MIC,[21],406 µg/mL
same,MIC,[22],203 µg/mL
CN(CC[C@H](N)CC(=O)N[C@H]1C=C[C@H](n2ccc(N)nc2=O)O[C@@H]1C(N)=O)C(=N)N,MIC,[23],50 µg/mL
same,MIC,[24],12.5 µg/mL
same,MIC,[25],50 µg/mL
same,MIC,[26],12.5 µg/mL
same,MIC,[27],6.25 µg/mL
same,MIC,[28],12.5 µg/mL
same,MIC,[29],12.5 µg/mL
C=C1CCC2CC1C2(C)C (stereo not drawn) [BETA-PINENE],MIC,[15],> 1020 µg/mL
same,MIC,[16],> 1020 µg/mL
O=C(/C=C/c1ccco1)N/N=C/c1ccc(Br)o1,MIC,[30],1 µg/mL
same,MIC,[31],64 µg/mL
same,MIC,[32],64 µg/mL
same,MIC,[33],0.5 µg/mL
CC1(C)CC[C@]2(C)CC[C@]3(C)C(=CC[C@@H]4[C@@]5(C)CC[C@H](O)C(C)(C)[C@@H]5CC[C@]43C)[C@@H]2C1 [beta-AMYRIN],MIC,[21],406 µg/mL
same,MIC,[22],203 µg/mL
